Measurements reported in patent publication US9296693B2, “Acyl piperidine inhibitors of soluble epoxide hydrolase” (The Regents of the University of California, priority 2010, dated 2016).
Several values for one entry are separate records, joined by “and”; a condition that tells them apart may be missing. Equal entries are not always repeated. Where two headings read alike, the source gives them in different places.

Tests used:
murine sEH = murine sEH (Mus musculus (Mouse), UniProt P34914); test: fluorescent based IC50 assay (CMNPC substrate), recombinant murine sEH; type: biochemical; conditions: homogenous recombinant murine sEH 1 nM, CMNPC 5 μM, pH 7.0, 30° C., average of three replicates
Chain of murine sEH (P34914 whole entry): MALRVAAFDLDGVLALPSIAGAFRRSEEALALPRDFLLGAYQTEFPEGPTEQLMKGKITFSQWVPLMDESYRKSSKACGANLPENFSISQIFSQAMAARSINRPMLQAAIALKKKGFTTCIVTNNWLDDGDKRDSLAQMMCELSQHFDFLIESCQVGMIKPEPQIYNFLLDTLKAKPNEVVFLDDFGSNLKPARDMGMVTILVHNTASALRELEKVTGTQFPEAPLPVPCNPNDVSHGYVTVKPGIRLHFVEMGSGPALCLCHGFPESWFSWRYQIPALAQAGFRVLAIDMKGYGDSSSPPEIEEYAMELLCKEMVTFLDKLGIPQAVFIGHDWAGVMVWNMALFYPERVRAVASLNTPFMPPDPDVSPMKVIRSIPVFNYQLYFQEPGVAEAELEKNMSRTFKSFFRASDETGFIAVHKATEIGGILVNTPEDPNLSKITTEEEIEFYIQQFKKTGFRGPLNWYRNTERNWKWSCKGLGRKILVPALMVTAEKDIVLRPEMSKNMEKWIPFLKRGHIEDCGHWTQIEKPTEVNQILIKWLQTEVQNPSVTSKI

[1] = log P by shake flask method (OECD guideline 107); type: physicochemical
Human sEH = Human sEH (Homo sapiens (Human), UniProt P34913); test: fluorescent based IC50 assay (CMNPC substrate), recombinant human sEH;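 also: enzyme preincubated with inhibitor for 5 min before adding substrate, in 25 mM Bis-Tris/HCl buffer supplemented with 0.1 mg/mL BSA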
Chain of Human sEH (P34913 whole entry): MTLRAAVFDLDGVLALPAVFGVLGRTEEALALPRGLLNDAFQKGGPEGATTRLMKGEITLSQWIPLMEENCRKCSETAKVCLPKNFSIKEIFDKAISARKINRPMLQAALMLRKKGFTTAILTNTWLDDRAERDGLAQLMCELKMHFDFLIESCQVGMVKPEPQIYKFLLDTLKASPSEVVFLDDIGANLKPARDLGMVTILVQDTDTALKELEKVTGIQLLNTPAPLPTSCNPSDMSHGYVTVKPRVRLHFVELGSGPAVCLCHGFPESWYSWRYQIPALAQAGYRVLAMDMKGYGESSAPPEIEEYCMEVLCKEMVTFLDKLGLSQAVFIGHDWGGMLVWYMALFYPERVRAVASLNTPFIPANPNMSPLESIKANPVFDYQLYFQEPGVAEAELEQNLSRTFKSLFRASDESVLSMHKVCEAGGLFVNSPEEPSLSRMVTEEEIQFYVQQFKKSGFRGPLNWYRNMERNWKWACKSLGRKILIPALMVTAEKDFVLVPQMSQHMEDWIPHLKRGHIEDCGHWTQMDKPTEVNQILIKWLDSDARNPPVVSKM

[2] = Pharmacokinetic screening of selected haloalkyl-phenyl ureas, blood profiles; type: in vivo; conditions: whole blood
[3] = Log P determination by HPLC method (OECD guideline 117); type: physicochemical; conditions: octanol/water; read-out: log P (±0.5)
Experimental: Log P and purity analyses were performed using a Hewlett Packard 1100 HPLC equipped with a diode array detector. A Phenomenex Luna 150 mm×4.6 mm, 5 μm, C-18 column was used for all HPLC analyses.

[4] = read-out: IC50 (nM) Human, homogenous recombinant human sEH 1 nM, CMNPC 5 μM, pH 7.0, 30° C., average of three replicates

| SMILES | IC50 (murine sEH) | IC50 (Human sEH; [4]) [nM] | other results |
| --- | --- | --- | --- |
| CCC(=O)N1CCC(NC(=O)Nc2ccc(F)cc2)CC1 [Compound 24, 1-(4-Fluorophenyl)-3-(1-propionylpiperidin-4-yl)urea] | 110 nM | 79 | log P [1]: 1.9 |
| O=C(Nc1ccc(OC(F)(F)F)cc1)NC1CCN(C(=O)c2cc(O)c(O)c(O)c2)CC1 [Compound 54, 1-(4-(Trifluoromethoxy)phenyl)-3-(1-(3,4,5-trihydroxybenzoyl)piperidin-4-yl)urea] | 2.7 nM | 0.5 | log P [1]: 2.3 |
| O=C(Nc1ccc(C(F)(F)F)cc1)NC1CCN(C(=O)C2CC2)CC1 [Compound 61, 1-(1-cyclopropanecarbonylpiperidin-4-yl)-3-(4-(trifluoromethyl)phenyl)urea] | – | – | AUC [2]: 170 µM·h; Cmax [2]: 10.2 µM; Tmax [2]: 4 h; half-life [2]: 10.6 h |
| CCC(C)C(=O)N1CCC(NC(=O)Nc2ccc(C(F)(F)F)cc2)CC1 (stereo not drawn) [Compound 64, 1-(1-(2-methylbutyryl)piperidin-4-yl)-3-(4-(trifluoromethyl)phenyl)urea] | – | – | AUC [2]: 3.9 µM·h; Cmax [2]: 4 µM; Tmax [2]: 4 h; half-life [2]: 2.5 h |
| O=C(Nc1ccc(C(F)(F)F)cc1)NC1CCN(S(=O)(=O)C2CC2)CC1 [Compound 70, 1-(1-(cyclopropylsulfonyl)piperidin-4-yl)-3-(4-(trifluoromethyl)phenyl)urea] | – | – | AUC [2]: 167 µM·h; Cmax [2]: 10.9 µM; Tmax [2]: 4 h; half-life [2]: 11.9 h |
| CCCCS(=O)(=O)N1CCC(NC(=O)Nc2ccc(C(F)(F)F)cc2)CC1 [Compound 69, 1-(1-(butylsulfonyl)piperidin-4-yl)-3-(4-(trifluoromethyl)phenyl)urea] | – | – | AUC [2]: 15.5 µM·h; Cmax [2]: 1.7 µM; Tmax [2]: 1 h; half-life [2]: 4.5 h |
| CCS(=O)(=O)N1CCC(NC(=O)Nc2ccc(OC(F)(F)F)cc2)CC1 [Compound 56, 1-(1-(Ethylsulfonyl)piperidin-4-yl)-3-(4-(trifluoromethoxy)phenyl)urea] | 0.7 nM | 0.4 | – |
| CCC(=O)N1CCC(NC(=O)Nc2cccc(C)c2)CC1 [Compound 11] | 8.7 nM | 40 | – |
| CCC(=O)N1CCC(NC(=O)Nc2ccc3ccccc3c2)CC1 [Compound 8, 1-(Naphthalen-2-yl)-3-(1-propionylpiperidin-4-yl)urea] | 4.2 nM | 3 | – |
| CCC(=O)N1CCC(NC(=O)Nc2ccccc2C)CC1 [Compound 10, 1-(1-Propionylpiperidin-4-yl)-3-o-tolylurea] | > 5000 nM and 5100 nM | 1700 | – |
| CCC(=O)N1CCC(NC(=O)Nc2ccc(C(F)(C(F)(F)F)C(F)(F)F)cc2C)CC1 [Compound 39, 1-(2-Methyl-4-perfluoroisopropylphenyl)-3-(1-propionylpiperidin-4-yl)urea] | 28 nM | 17 | – |
| CCCCCCCCNC(=O)NC1CCN(C(=O)CC)CC1 [Compound 5, 1-Octyl-3-(1-propionylpiperidin-4-yl)urea] | 0.4 nM | 3.2 | – |
| CC(=O)N1CCN(CC(=O)N2CCC(NC(=O)Nc3ccc(OC(F)(F)F)cc3)CC2)CC1 [Compound 51, 1-(1-((4-Acetylpiperazin-1-yl)acetyl)piperidin-4-yl)-3-(4-(trifluoromethoxy)phenyl)urea] | 1.2 nM | 0.5 | – |
| CCC(=O)N1CCC(NC(=O)NC23CC4CC(CC(C4)C2)C3)CC1 [Compound 2, 1-(1-Adamantyl)-3-(1-propionylpiperidin-4-yl)urea] | 1.2 nM | 2.8 | – |
| CCC(=O)N1CCC(NC(=O)Nc2cccnc2)CC1 [Compound 9, 1-(1-Propionylpiperidin-4-yl)-3-(pyridin-3-yl)urea] | > 5000 nM and 12000 nM | 3800 | chromatographic logP [3]: < 0 |
| CCC(=O)N1CCC(NC(=O)Nc2ccc(C(C)C)cc2)CC1 [Compound 14, 1-(4-Isopropylphenyl)-3-(1-propionylpiperidin-4-yl)urea] | 3.3 nM | 2.8 | – |
| CCC(=O)N1CCC(NC(=O)Nc2ccc(Cl)c(C(F)(F)F)c2)CC1 [Compound 35, 1-(4-Chloro-3-(trifluoromethyl)phenyl)-3-(1-propionylpiperidin-4-yl)urea] | 2.3 nM | 4.1 | – |
| CCC(=O)N1CCC(NC(=O)Nc2cccc(F)c2)CC1 [Compound 28, 1-(3-Fluorophenyl)-3-(1-propionylpiperidin-4-yl)urea] | 20 nM | 39 | – |
| O=C(Nc1ccc(OC(F)(F)F)cc1)NC1CCN(S(=O)(=O)c2ccccc2)CC1 [Compound 57, 1-(1-(Phenylsulfonyl)piperidin-4-yl)-3-(4-(trifluoromethoxy)phenyl)urea] | 0.4 nM | 1.8 | – |
| CCC(=O)N1CCC(NC(=O)Nc2ccccc2)CC1 [Compound 7, 1-Phenyl-3-(1-propionylpiperidin-4-yl)urea] | 49 nM | 130 | – |
| CCC(=O)N1CCC(NC(=O)Nc2ccc(Cl)cc2)CC1 [Compound 25, 1-(4-Chlorophenyl)-3-(1-propionylpiperidin-4-yl)urea] | 23 nM | 10 | – |
| CCC(=O)N1CCC(NC(=O)Nc2ccc(CC)cc2)CC1 [Compound 13, 1-(4-Ethylphenyl)-3-(1-propionylpiperidin-4-yl)urea] | 1.3 nM | 8.3 | – |
| O=C(Nc1ccc(OC(F)(F)F)cc1)NC1CCN(C(=O)c2ccncc2)CC1 [Compound 47, 1-(1-Isonicotinoylpiperidin-4-yl)-3-(4-(trifluoromethoxy)phenyl)urea] | 1.3 nM | 0.7 | – |
| CCC(=O)N1CCC(NC(=O)Nc2ccc(Oc3ccccc3)cc2)CC1 [Compound 16, 1-(4-Phenoxyphenyl)-3-(1-propionylpiperidin-4-yl)urea] | 0.4 nM | 3.5 | – |
| CCC(=O)N1CCC(NC(=O)NC2CCCCCC2)CC1 [Compound 3, 1-Cycloheptyl-3-(1-propionylpiperidin-4-yl)urea] | 0.9 nM | 3.9 | – |
| CCC(=O)N1CCC(NC(=O)Nc2c(Cl)cccc2Cl)CC1 [Compound 34, 1-(2,6-Dichlorophenyl)-3-(1-propionylpiperidin-4-yl)urea] | > 5000 nM and 38000 nM | > 50000 | IC50 (Human sEH): > 5000 nM |
| O=C(Nc1ccc(OC(F)(F)F)cc1)NC1CCN(C(=O)Cc2ccccn2)CC1 [Compound 49, 1-(((Pyridin-2-yl)acetyl)piperidin-4-yl)-3-(4-(trifluoromethoxy)phenyl) urea] | 5 nM | 3.1 | – |
| CCC(=O)N1CCC(NC(=O)Nc2ccc(OC)cc2)CC1 [Compound 15, 1-(4-Methoxyphenyl)-3-(1-propionylpiperidin-4-yl)urea] | 8.7 nM | 87 | – |
| CCC(=O)N1CCC(NC(=O)Nc2cc(OC)c(OC)c(OC)c2)CC1 [Compound 18, 1-(1-Propionylpiperidin-4-yl)-3-(3,4,5-trimethoxyphenyl)urea] | > 5000 nM and 25000 nM | > 5000 | – |
| O=C(Nc1ccc(OC(F)(F)F)cc1)NC1CCN(C(=O)c2ccc(Cl)nc2)CC1 [Compound 48, 1-(1-(6-Chloronicotinoyl)piperidin-4-yl)-3-(4-(trifluoromethoxy)phenyl) urea] | 0.7 nM | 0.6 | – |
